According to PMC4148444, “P. aeruginosa SGNH Hydrolase-Like Proteins AlgJ and AlgX Have Similar Topology but Separate and Distinct Roles in Alginate Acetylation” (PLoS Pathogens, 2014):

Columns and labels:
PaAlgX27–474 = biological target: T1, PaAlgX27–474 (Pseudomonas aeruginosa, UniProt Q51372); assay: direct ESI-MS binding assay; settings: 50 mM ammonium acetate, pH 7, 298 K; corrected for nonspecific binding; site (active site or CBM) not resolved; read-out: Apparent K a (M^-1) AlgX
T1 construct: gene algX; residues 27-474 (mature protein, SGNH hydrolase-like domain plus C-terminal CBM)
Excerpt: direct ESI-MS binding assay on PaAlgX27–474

PaAlgJ79–379 = biological target: T2, PaAlgJ79–379 (Pseudomonas aeruginosa, UniProt Q51393); assay: direct ESI-MS binding assay; settings: 50 mM ammonium acetate, pH 7, 298 K; only folded (low charge state) fraction used, its concentration not accurately known; read-out: Apparent K a (M^-1) AlgJ
T2 construct: gene algJ; soluble periplasmic domain 79-379 without TM helix 12-29; N-terminal His6 thrombin-cleaved; expressed in E. coli BL21-CodonPlus; monomer by SEC
Excerpt: direct ESI-MS binding assay on PaAlgJ79–379

[1] = system: CC(=O)Oc1ccc2cc(C(=O)O)c(=O)oc2c1; assay: fluorescence acetylesterase assay; assay type: biochemical, Pseudomonas putida; settings: 50 mM sodium HEPES pH 7.0, 298 K, up to 10% DMSO, kcat given as (×10^3 s^-1), kcat/Km implies ×10^-3, 25.0 °C
Excerpt: fluorescence acetylesterase assay on PpAlgJ75–370

[2] = system: CC(=O)Oc1ccc2cc(C(=O)O)c(=O)oc2c1; assay: purified protein; settings: up to 10% DMSO, kcat given as (×10^3 s^-1), kcat/Km implies ×10^-3, 25.0 °C
[3] = 50 mM sodium HEPES pH 7.0, 298 K
[4] = 50 mM sodium HEPES pH 8.0, 298 K

T2 sequence (Q51393 79-379): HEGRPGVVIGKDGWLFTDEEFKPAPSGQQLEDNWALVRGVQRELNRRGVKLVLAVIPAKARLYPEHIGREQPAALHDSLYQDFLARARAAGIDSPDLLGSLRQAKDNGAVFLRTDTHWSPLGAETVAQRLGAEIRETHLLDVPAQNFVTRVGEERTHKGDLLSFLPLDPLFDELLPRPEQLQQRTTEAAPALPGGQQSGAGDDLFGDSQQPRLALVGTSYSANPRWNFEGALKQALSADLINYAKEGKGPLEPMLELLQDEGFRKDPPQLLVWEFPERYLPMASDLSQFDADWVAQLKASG
T1 sequence (Q51372 27-474): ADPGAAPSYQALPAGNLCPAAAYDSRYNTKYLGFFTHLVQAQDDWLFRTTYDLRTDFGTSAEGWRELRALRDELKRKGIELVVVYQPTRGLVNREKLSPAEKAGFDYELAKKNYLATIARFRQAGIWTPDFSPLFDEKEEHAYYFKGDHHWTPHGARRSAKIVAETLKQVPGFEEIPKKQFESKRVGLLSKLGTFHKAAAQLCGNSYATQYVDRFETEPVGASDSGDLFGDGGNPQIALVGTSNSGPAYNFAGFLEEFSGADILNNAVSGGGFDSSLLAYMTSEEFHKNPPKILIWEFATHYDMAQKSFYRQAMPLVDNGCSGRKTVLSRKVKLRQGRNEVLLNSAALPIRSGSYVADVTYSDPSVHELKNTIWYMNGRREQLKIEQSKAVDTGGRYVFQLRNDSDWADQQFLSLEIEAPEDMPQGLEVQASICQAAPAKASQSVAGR

Molecule	Kd (PaAlgX27–474)	Kd (PaAlgJ79–379)	further results
ManA10	100 µM		
ManA8	172 µM		
ManA9	114 µM		
ManA12	52.6 µM		
O=C(O)C1OC(OC2C(C(=O)O)OC(OC3C(C(=O)O)OC(OC4C(C(=O)O)OC(OC5C(C(=O)O)OC(O)C(O)C5O)C(O)C4O)C(O)C3O)C(O)C2O)C(O)C(O)C1O (stereo not shown) [ManA5]	1000 µM	> 2000 µM	
ManA7	208 µM	> 2000 µM	
ManA11	62.5 µM		
PpAlgJ75–370 (Pseudomonas putida KT2440)			Km [1]: 2300 ± 96.3 µM; kcat [1]: 7.80±0.155 ×10^-3 s^-1; kcat/Km [1]: 3.39 ± 0.0688 M⁻¹ s⁻¹
PaAlgJ79–379 (Pseudomonas aeruginosa PAO1)			Km [2, 3]: 1160 ± 120 µM; kcat [2, 3]: 3.44±0.129 ×10^-3 s^-1; kcat/Km [2, 3]: 2.96 ± 0.324 M⁻¹ s⁻¹
O=C(O)C1OC(OC2C(C(=O)O)OC(OC3C(C(=O)O)OC(OC4C(C(=O)O)OC(O)C(O)C4O)C(O)C3O)C(O)C2O)C(O)C(O)C1O (stereo not shown) [ManA4]	1000 µM	> 2000 µM	
PaAlgX27–474 (Pseudomonas aeruginosa PAO1)			Km [2, 4]: 1100 ± 96 µM; kcat [2, 4]: 11.4±0.343 ×10^-3 s^-1; kcat/Km [2, 4]: 10.3 ± 0.961 M⁻¹ s⁻¹
CCCO[C@@H]1O[C@H](C(=O)O)[C@@H](O[C@@H]2O[C@H](C(=O)O)[C@@H](O[C@@H]3O[C@H](C(=O)O)[C@@H](O[C@@H]4O[C@H](C(=O)O)[C@@H](O[C@@H]5O[C@H](C(=O)O)[C@@H](O[C@@H]6O[C@H](C(=O)O)[C@@H](O)[C@H](O)[C@@H]6O)[C@H](O)[C@@H]5O)[C@H](O)[C@@H]4O)[C@H](O)[C@@H]3O)[C@H](O)[C@@H]2O)[C@H](O)[C@@H]1O [ManA6]	312 µM	> 2000 µM	
